In patent US6566355B1 (Hoffmann-La Roche Inc., priority 1991, dated 2003):
pIC50: −log10 of the molar value. Where a name gives a salt, the structure may show the parent alone. Read-outs that look alike come from different tables or passages of the source.

What was measured:
[1] = biological target: T1, β-lactamase (Citrobacter freundii, UniProt P05193); experiment: biochemical; conditions: for IC50: isolated β-lactamase of Citrobacter freundii, substrate nitrocefin 0.1 mM, 15 minutes pre-incubation with inhibitor, 37° C., pH 7.0
T1 construct: Various β-lactamases can be isolated from penicillin- or cephalosporin-resistant bacterial strains such as; endogenous in cells; host or cells: Citrobacter freundii 1203 (enzyme purified from the crude cell extract, after ampicillin induction when necessary)
Method: A. Isolation of the β-lactamases
Various β-lactamases can be isolated from penicillin- or cephalosporin-resistant bacterial strains such as Klebsiella pneumoniae NCTC 418, Proteus vulgaris 1028, Bacillus licheniformis 749/C, Escherichia coli SN01 and Citrobacter freundii 1203. For this purpose, the corresponding strains are cultivated in Tryptic Soy Broth (Difco) and harvested by centrifugation in the last logarithmic growth phase (when necessary 50-100 mg/l of ampicillin are added to the medium towards the end of the log-phase in order to induce the β-lactamase). The thus-obtained bacterial mass is treated with 20 mM Tris-HCl buffer (pH 7.0); the cells are broken open with a French press while cooling. The mixture is centrifuged (20,000 r/min.) for 20-30 minutes and a clear crude extract is obtained.
B. Determination of the β-lactamase activity
The determination of the activity of the isolated β-lactamases can be carried out according to the method of O'Callaghan, C. H. et al. [Antimicr. Ag. Chemother., 1, 283-288 (1972)] using the chromogenic cephalosporin nitrocefin (87/312 from Glaxo). The requisite test batch contains per ml of water: 50 mM phosphate buffer (pH 7.0), 0.1 mM nitrocefin and sufficient enzyme (β-lactamase) to achieve a ΔA/min. of about 0.1. The cleavage of the substrate, which is accompanied by a change in colour, is effected at 37° C. and is followed quantitatively at 482 nm using a spectral photometer.
C. Determination of the β-lactamase-inhibiting activity of the compounds of general formula I
The above-described cleavage of the chromogenic substrate by β-lactamases (test B.) can be inhibited by the addition of compounds of general formula I (inhibitors). […] As a measurement for the affinity of the particular tested inhibitor to the β-lactamase, which is a measurement of the strength of the inhibitor, there serves that concentration which inhibits by 50% (IC 50 in nM) the cleavage of the substrate (nitrocefin) effected under the above test conditions (test B) in the absence of an inhibitor. […] The determination of the IC50 was effected by means of a graph.
(Test organism: Citrobacter freundii)

[2] = system: Citrobacter freundii; experiment: MIC in vitro of a 1:4 combination of ceftriaxone with a compound of formula I (test D); type: cell-based; conditions: 1:4 combination of ceftriaxone with the compound
Method: D. Determination of the β-lactamase-inhibiting activity by combination of a compound of general formula I with ceftriaxone
The minimum inhibitory concentration in vitro (MIC in μg/ml) of a 1:4 combination of ceftriaxone with a compound of formula I against Citrobacter freundii is measured and compiled in Table 2 hereinafter.

T1 sequence (P05193 21-381): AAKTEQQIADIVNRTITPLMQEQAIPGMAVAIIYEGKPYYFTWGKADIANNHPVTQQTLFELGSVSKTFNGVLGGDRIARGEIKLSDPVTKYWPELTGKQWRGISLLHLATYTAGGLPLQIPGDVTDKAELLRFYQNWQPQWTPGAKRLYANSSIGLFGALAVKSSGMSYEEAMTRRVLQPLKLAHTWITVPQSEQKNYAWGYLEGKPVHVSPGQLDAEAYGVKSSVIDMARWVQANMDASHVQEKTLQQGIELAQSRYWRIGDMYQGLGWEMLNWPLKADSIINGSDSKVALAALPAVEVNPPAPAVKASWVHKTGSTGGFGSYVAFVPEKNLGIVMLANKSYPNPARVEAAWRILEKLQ

SMILES	pIC50 [1]	MIC [2] [µg/mL]	IC50 ([1]; IC 50 nM) [nM]	IC50 ([1]; read-out: IC 50 nM) [nM]
NC(C(=O)N1CC[C@@H]2[C@H]1C(=O)N2S(=O)(=O)O)c1cccc(O)c1 (mixture of isomers) [6(q), (1S,5R)-2-[DL-2-(m-Hydroxyphenyl)glycyl]-7-oxo-2,6-diazabicyclo[3.2.0]heptane-6-sulphonic acid]	6.43	2	–	–
NC(C(=O)N1CC[C@@H]2[C@H]1C(=O)N2S(=O)(=O)O)c1ccc(O)cc1 (mixture of isomers) [6(s), (1S,5R)-2-[R,S-Amino-(4-hydroxyphenyl)-acetyl]-7-oxo-2,6-diazabicyclo[3.2.0]heptane-6-sulphonic acid sodium salt]	6.23	4	–	–
NC(C(=O)N1CC[C@@H]2[C@H]1C(=O)N2S(=O)(=O)[O-])c1ccccc1F.[Na+] (mixture of isomers) [8(c), (1S,5R)-2-[DL-2-(o-Fluorophenyl)glycyl]-7-oxo-2,6-diazabicyclo[3.2.0]heptane-6-sulphonic acid sodium salt]	–	2	120	–
O=C1SCCC1NC(=O)N1CC[C@@H]2[C@H]1C(=O)N2S(=O)(=O)O (mixture of isomers) [17(j), (1S,5R)-7-Oxo-2-(R,S)-(2-oxo-3-tetrahydrothienyl-carbamoyl)-2,6-diazabicyclo[3.2.0]heptane-6-sulphonic acid sodium salt]	7.10	2	–	–
O=C(NC1CCS(=O)(=O)C1)N1CC[C@@H]2[C@H]1C(=O)N2S(=O)(=O)[O-].[Na+] (mixture of isomers) [17(x), (1S,5R)-2-[(R) and (S)-1,1-Dioxo-tetrahydrothiophen-3-ylcarbamoyl]-7-oxo-2,6-diaza-bicyclo[3.2.0]heptane-6-sulfonic acid sodium salt]	–	2	199	–
O=C(NCC1CCCO1)N1CC[C@@H]2[C@H]1C(=O)N2S(=O)(=O)[O-].[Na+] (mixture of isomers) [17(y), (1S,5R)-2-[(R) and (S)-Tetrahydrofuran-2-ylmethylcarbamoyl]-7-oxo-2,6-diaza-bicyclo[3.2.0]heptane-6-sulfonic acid sodium salt]	–	1	238	–
NC(C(=O)N1CC[C@@H]2[C@H]1C(=O)N2S(=O)(=O)O)c1cccs1 (single isomer, unassigned) [5(e), (1S,5R)-2-[(R or S)-α-Amino-(2-thienyl)acetyl]-7-oxo-2,6-diazabicyclo[3.2.0]heptane-6-sulphonic acid]	7.07	2	–	–
CC(=O)NC(C(=O)N1CC[C@@H]2[C@H]1C(=O)N2S(=O)(=O)O)c1ccccc1 (single isomer, unassigned) [5(g), (1S,5R)-2-[D- or L-N-Acetyl-2-phenylglycyl]-7-oxo-2,6-diazabicyclo[3.2.0]-heptane-6-sulphonic acid sodium salt]	6.82	8	–	–
N[C@@H](C(=O)N1CC[C@@H]2[C@H]1C(=O)N2S(=O)(=O)O)c1ccccc1 [4(b), (1S,5R)-7-Oxo-2-(D-2-phenylglycyl)-6-2,6-diazabicyclo[3.2.0]heptane-6-sulphonic acid]	6.60	2	–	–
N[C@H](C(=O)N1CC[C@@H]2[C@H]1C(=O)N2S(=O)(=O)O)c1ccccc1 [4(d), (1S,5R)-7-Oxo-2-(L-2-phenylglycyl)-2,6-diazabicyclo[3.2.0]heptane-6-sulphonic acid]	6.56	2	–	–
N[C@H](Cc1ccccc1)C(=O)N1CC[C@@H]2[C@H]1C(=O)N2S(=O)(=O)O [4(f), (1S,5R)-7-Oxo-2-(3-phenyl-D-alanyl)-2,6-diazabicyclo[3.2.0]heptane-6-sulphonic acid]	6.55	4	–	–
O=C(CNc1ccccc1)N1CC[C@@H]2[C@H]1C(=O)N2S(=O)(=O)[O-].[Na+] [5(b), (1S,5R)-7-Oxo-2-(N-phenylglycyl)-2,6-diazabicyclo[3.2.0]heptane-6-sulphonic acid sodium salt]	–	2	110	–
Nc1cccc(NCC(=O)N2CC[C@@H]3[C@H]2C(=O)N3S(=O)(=O)O)c1 [5(i), (1S,5R)-2-[N-(m-Aminophenyl)glycyl] -7-oxo-2,6-diazabicyclo[3.2.0]heptane-6-sulphonic acid]	6.94	2	–	–
Cn1nnnc1SCC(=O)N1CC[C@@H]2[C@H]1C(=O)N2S(=O)(=O)[O-].[Na+] [5(j), (1S,5R)-2-[[(1-Methyl-1H-tetrazol-5-yl)-thio]acetyl]-7-oxo-2,6-diazabicyclo[3.2.0]heptane-6-sulphonic acid sodium salt]	–	0.5	23	–
O=C(COn1nnc2ccccc21)N1CC[C@@H]2[C@H]1C(=O)N2S(=O)(=O)[O-].[Na+] [5(k), (1S,5R)-2-[[1H-Benzotriazol-1-yl)oxylacetyl]-7-oxo-2,6-diazabicyclo[3.2.0]-heptane-6-sulphonic acid sodium salt]	–	2	73	–
CC(C)n1nnc(CC(=O)N2CC[C@@H]3[C@H]2C(=O)N3S(=O)(=O)[O-])n1.[Na+] [5(l), (1S,5R)-2-[(2-Isopropyl-2H-tetrazol-5-yl)-acetyl]-7-oxo-2,6-diazabicyclo[3.2.0]heptane-6-sulphonic acid sodium salt]	–	4	860	–
Cc1nnc(SCC(=O)N2CC[C@@H]3[C@H]2C(=O)N3S(=O)(=O)[O-])s1.[Na+] [5(m), (1S,5R)-2-[[(5-Methyl-1,3,4-thiadiazol-2-yl)thio]acetyl]-7-oxo-2,6-diazabicyclo[3.2.0]heptane-6-sulphonic acid sodium salt]	–	0.5	24	–
O=C(COc1ccc(O)nn1)N1CC[C@@H]2[C@H]1C(=O)N2S(=O)(=O)[O-].[Na+] [5(p), (1S,5R)-2-[(6-Hydroxy-pyridazin-3-yloxy)-acetyl]-7-oxo-2,6-diazabicyclo[3.2.0]heptane-6-sulfonic acid sodium salt]	–	1	178	–
O=C(CSc1nnnn1-c1ccccc1)N1CC[C@@H]2[C@H]1C(=O)N2S(=O)(=O)O [5(q), (1S,5R)-7-Oxo-2-[(1-phenyl-tetrazol)-5-ylsulfanyl-acetyl]-2,6-diazabicyclo[3.2.0]heptane-6-sulfonic acid sodium salt]	8.30	2	–	–
N[C@@H](C(=O)N1CC[C@@H]2[C@H]1C(=O)N2S(=O)(=O)O)c1ccc(O)cc1 [6(d), (1S,5R)-2-[D-2-(p-Hydroxyphenyl)glycyl]-7-oxo-2,6-diazabicyclo[3.2.0]-heptane-6-sulphonic acid]	6.30	2	–	–
CCN(CC)CC.O=C(/C=C/c1c[nH]c2ccccc12)N1CC[C@@H]2[C@H]1C(=O)N2S(=O)(=O)O [6(f), (1S,5R)-2-[(E)-3-(3-Indolyl)acryloyl]-7-oxo-2,6-diazabicyclo[3.2.0]heptane-6-sulphonic acid triethylamine salt (1:1)]	–	4	–	11
N[C@@H](Cc1c[nH]c2ccccc12)C(=O)N1CC[C@@H]2[C@H]1C(=O)N2S(=O)(=O)O [6(h), (1S,5R)-7-Oxo-2-L-tryptophanyl-2,6-diazabicyclo[3.2.0]heptane-6-sulphonic acid]	8.22	1	–	–
O=C(Cc1cccnc1)N1CC[C@@H]2[C@H]1C(=O)N2S(=O)(=O)[O-].[Na+] [6(i), (1S,5R)-7-Oxo-2-(3-pyridylacetyl)-2,6-diazabicyclo[3.2.0]-heptane-6-sulphonic acid sodium salt]	–	4	700	–
N[C@@H](C(=O)N1CC[C@@H]2[C@H]1C(=O)N2S(=O)(=O)O)c1cccc(O)c1 [6(p), (1S,5R)-2-[R-2-(m-Hydroxyphenyl)glycyl]-7-oxo-2,6-diazabicyclo[3.2.0]heptane-6-sulphonic acid]	7.25	2	–	–
O=C(/C=C/c1ccc(O)c(O)c1)N1CC[C@@H]2[C@H]1C(=O)N2S(=O)(=O)O [6(u), (1S,5R)-(E)-2-[3-(3,4Dihydroxy)phenyl)acryloyl)]-7-oxo-2,6-diazabicyclo[3.2.0]heptane-6-sulfonic acid sodium salt]	7.40	2	–	–
